Values quoted from earlier work as cited in Sander's compilation of Henry's law constants (doi:10.1080/10643389609388492).

test: Henry solubility constant Hcp at 298.15 K (mol/(m3 Pa)); details: reference: Staudinger and Roberts (1996); cited value

| Structure (SMILES) | Henry solubility constant Hcp |
| --- | --- |
| ClC(Cl)(Cl)Cl [tetrachloromethane] | 0.00034 |
| Cc1ccc(C)cc1 [1,4-dimethylbenzene] | 0.0013 |
| C=C(Cl)Cl [1,1-dichloroethene] | 0.00034 |
| CC(C)=O [propanone] | 0.3 |
| ClC(Cl)C(Cl)Cl [1,1,2,2-tetrachloroethane] | 0.024 |
| ClCC(Cl)Cl [1,1,2-trichloroethane] | 0.011 |
| ClCCl [dichloromethane] | 0.0036 |
| ClC=C(Cl)Cl [trichloroethene] | 0.00099 |
| CCCl [chloroethane] | 0.00083 |
| ClCC(Cl)CCl [1,2,3-trichloropropane] | 0.034 |
| CCc1ccccc1 [ethylbenzene] | 0.0012 |
| ClC(Cl)(Cl)C(Cl)(Cl)Cl [hexachloroethane] | 0.0025 |
| CC(Cl)CCl (stereo not given) [1,2-dichloropropane] | 0.0034 |
| O=Cc1ccccc1 [benzaldehyde] | 0.39 |
| CC(Cl)(Cl)Cl [1,1,1-trichloroethane] | 0.00058 |
| Clc1ccccc1 [chlorobenzene] | 0.0027 |
| ClC(Cl)=C(Cl)Cl [tetrachloroethene] | 0.00058 |
| ClC(Cl)Br [bromodichloromethane] | 0.004 |
| c1ccccc1 [benzene] | 0.0016 |
| ClC(Br)Br [dibromochloromethane] | 0.0085 |
| Cc1ccccc1 [methylbenzene] | 0.0015 |
| C=CCl [chloroethene] | 0.00039 |
| Cc1ccccc1C [1,2-dimethylbenzene] | 0.0019 |
| Cc1cccc(C)c1 [1,3-dimethylbenzene] | 0.0013 |
| BrC(Br)Br [tribromomethane] | 0.017 |
